# Test results taken from patent US5519049A, “Macrolides for the treatment of reversible obstructive airways diseases” (Fisons plc, priority 1989, dated 1996).
# Key:
# [1] = test system: ddy mice; assay: Acute intraperitoneal toxicity study; type: in vivo; details: 100 mgkg^-1
# [2] = test system: respiratory resistance; assay: Assay for respiratory resistance (inhibitory activity after antigen inhalation challenge, oscillation method); type: in vivo, inhalation-sensitized male Hartley guinea pigs; details: oral pretreatment every other day, 1 mgml^-1 solution; n = 7; after ovalbumin inhalation challenge; result in words (table title)
# Description: (§1) Assay for inhibitory activity against respiratory resistance and antigen-induced bronchial hyper-responsiveness
# (§2) Male Hartley guinea pigs (weighing about 300 g) were each placed in a plastic inhalation chamber. Using an ultrasonic nebulizer (NEU10B, Omron Corporation), an aerosolized solution of ovalbumin in physiological saline (10 mgml^-1) was introduced into the chamber for 10 minutes daily for 10 consecutive days to effect sensitization. The animals were used in the experiments 5 days after establishment of sensitization.
# During the period from the first day of sensitization to the day before an antigen challenge, the animals were orally treated with a 1 mgml^-1 solution of FR-900506 (in ethanol/olive oil [2:78 v/v]) every other day. Control animals received the ethanol/olive oil vehicle alone in the same manner.
# The experimental period was 5 days from day 1 to day 5, and the inhalation challenge with the antigen was given on day 2.
# On day 1, and 30 minutes before antigen inhalation challenge on day 2, metopirone (an endogenous cortisol synthesis inhibitor) was intravenously administered (10 mgkg^-1). So that the animals could tolerate the antigen at comparatively high concentrations, chlorpheniramine maleate, an antihistaminic, was intraperitoneally administered (10 mgkg^-1) following the second dose of metopirone. […]
# (§3) The results are expressed as mean ±SEM. […]
# [3] = test system: antigen-induced bronchial hyper-responsiveness to acetylcholine; assay: Assay for antigen-induced bronchial hyper-responsiveness to acetylcholine (PC200-Ach); type: in vivo, inhalation-sensitized male Hartley guinea pigs; details: oral pretreatment every other day, 1 mgml^-1 solution, n = 7, result in words (table title)
# Description: as §1, §2
# During the period from the first day of sensitization to the day before an antigen challenge, the animals were orally treated with a 1 mgml^-1 solution of FR-900506 (in ethanol/olive oil [2:78 v/v]) every other day. Control animals received the ethanol/olive oil vehicle alone in the same manner. […]
# Guinea pigs prepared by the method described above were placed in an animal box as described above and the baseline respiratory resistance was measured. […] From the concentration-resistance curve constructed from the acetylcholine concentration and respiratory resistance data, the acetylcholine concentration necessary for increasing the respiratory resistance to twice the baseline value [i.e. PC200 -Ach (μgml^-1)] was calculated.
# as §3
compound,measurement,setting,value
C=CC[C@@H]1/C=C(\C)C[C@H](C)C[C@H](OC)[C@H]2O[C@@](O)(C(=O)C(=O)N3CCCC[C@H]3C(=O)O[C@H](/C(C)=C/[C@@H]3CC[C@@H](O)[C@H](OC)C3)[C@H](C)[C@@H](O)CC1=O)[C@H](C)C[C@@H]2OC [FR-900506],"Acute intraperitoneal toxicity, deaths",[1],no deaths
same,Inhibitory effect on respiratory resistance,[2],Inhibitory effect
same,Inhibitory effect on antigen induced hyper-responsiveness to acetylcholine,[3],Inhibitory effect
